Data from patent US4596810A, “Emulsions of perfluoro octahydro quinolizines useful as blood substitutes” (The Green Cross Corporation, priority 1984, dated 1986).

Tests used:
[1] = system: Wister-strain male rats; test: Acute Toxicity Test (intravenous); format: in vivo, rat; details: 100 ml/kg-body weight, isotonized emulsion (Table 4), observed one week
Experimental: The acute toxicity test on the preparations of the present invention was carried out using the preparations of the present invention shown in Table 4 which had been physiologically isotonized. The test animals used were Wister-strain male rats (weighing 100-120 g).

[2] = Distribution of Perfluoro-compound in Organs (gas chromatography); format: in vivo, Wister-strain male rats; details: for Residual Rate of perfluorobicyclo compound: 3 Months, 4 g/kg tail vein
Description: The content of perfluoro-4-methyloctanhydroquinolidine uptake in each organ 1, 2 and 4 weeks and 3 months after the administration are shown in Table 5.

Structure (SMILES) | death cases [1] | adverse influence on the liver or spleen organ ([2]; 4 g/kg into the tail vein, 3 months) | Residual Rate of perfluorobicyclo compound ([2]; Liver) | Residual Rate of perfluorobicyclo compound ([2]; Spleen)
FC(F)(F)C(F)(F)C1(F)N2C(F)(F)C(F)(F)C(F)(F)C(F)(F)C2(F)C(F)(F)C(F)(F)C1(F)F (centres unmarked) [perfluoro-4-ethyloctahydroquinolidine] | no death case |  |  | 
FC(F)(F)C1(F)N2C(F)(F)C(F)(F)C(F)(F)C(F)(F)C2(F)C(F)(F)C(F)(F)C1(F)F (centres unmarked) [perfluoro-4-methyloctahydroquinolidine] | no death case | no evidence of adverse influence on the liver or spleen organ | 0.30% | 0.09%
